The record followed here is US10144732B2 (BIOGEN MA INC., priority 2014, dated 2018).

pIC50: −log10 of the molar value. Where a name gives a salt, the structure may show the parent alone.

The target of one experiment is T1, Human ATX protein (Homo sapiens, UniProt Q13822).
T1 construct: made in house
Briefly: ATX biochemical assay (FRET, FS-3 substrate). The following applies: FRET assay, FS-3 2 μM, ATX 1.0 μg/mL, 30 minutes preincubation, 2 hours reaction at room temperature; read-out: IC50. In a few lines:
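In-house human ATX (1.0 μg/mL final) was preincubated with compound for 30 min at room temperature in Tris buffer pH 7.4 with 1 mg/mL fatty acid free-BSA. FS-3 substrate (2 μM final) was then hydrolysed for 2 hours at room temperature, protected from light, and read as fluorescence at ex 485/em 538 nm.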
`CCC1CC(CC(=O)N2CCc3c(C(F)(F)F)nn(Cc4ccc(F)cc4)c3C2)CCN1` (centres unmarked) [Example 9-11, 2-(2-Ethylpiperidin-4-yl)-1-(1-(4-fluorobenzyl)-3-(trifluoromethyl)-4,5-dihydro-1H-pyrazolo[3,4-c]pyridin-6(7H)-yl)ethanone TFA salt]: the negative-log IC50 (pIC50) is at least 7.00.
In the case of `CCCC1CC(CC(=O)N2CCc3c(C(F)(F)F)nn(Cc4ccc(F)cc4)c3C2)CCN1` (centres unmarked) [Example 9-12, 1-(1-(4-Fluorobenzyl)-3-(trifluoromethyl)-4,5-dihydro-1H-pyrazolo[3,4-c]pyridin-6(7H)-yl)-2-(2-propylpiperidin-4-yl)ethanone acid TFA salt], the pIC50 was at least 7.00.
Turning to `O=C(CC1CCNC(C(F)(F)F)C1)N1CCc2c(C(F)(F)F)nn(Cc3ccc(F)cc3)c2C1` (centres unmarked) [Example 9-13, 1-(1-(4-Fluorobenzyl)-3-(trifluoromethyl)-4,5-dihydro-1H-pyrazolo[3,4-c]pyridin-6(7H)-yl)-2-(2-(trifluoromethyl)piperidin-4-yl)ethanone TFA salt], the negative-log IC50 (pIC50) was at least 7.00.
On to `O=C(O)[C@H]1CC(CC(=O)N2CCc3c(C(F)(F)F)nn(Cc4ccc(Cl)cc4F)c3C2)CN1` (stereo partly drawn) [Example 9-14, (2R)-4-(2-(1-(4-Chloro-2-fluorobenzyl)-3-(trifluoromethyl)-4,5-dihydro-1H-pyrazolo[3,4-c]pyridin-6(7H)-yl)-2-oxoethyl)pyrrolidine-2-carboxylic acid TFA salt], for which the negative-log IC50 (pIC50) is at least 7.00.
As to `O=C(CC1CNCCO1)N1CCc2c(C(F)(F)F)nn(Cc3ccc(Cl)cc3F)c2C1` (centres unmarked) [Example 9-15, 1-(1-(4-Chloro-2-fluorobenzyl)-3-(trifluoromethyl)-4,5-dihydro-1H-pyrazolo[3,4-c]pyridin-6(7H)-yl)-2-(morpholin-2-yl)ethanone TFA salt], the pIC50 is at least 7.00.
Turning to `O=C(CC1CNCCO1)N1CCc2c(C(F)(F)F)nn(Cc3ccc(F)cc3)c2C1` (centres unmarked) [Example 9-16, 1-(1-(4-Fluorobenzyl)-3-(trifluoromethyl)-4,5-dihydro-1H-pyrazolo[3,4-c]pyridin-6(7H)-yl)-2-(morpholin-2-yl)ethanone TFA salt], the pIC50 is at least 7.00.
For `N[C@H]1CC[C@@H](CC(=O)N2CCc3c(C(F)(F)F)nn(Cc4ccc(Cl)cc4F)c3C2)CC1` [Example 9-17, 2-(cis-4-Aminocyclohexyl)-1-(1-(4-chloro-2-fluorobenzyl)-3-(trifluoromethyl)-4,5-dihydro-1H-pyrazolo[3,4-c]pyridin-6(7H)-yl)ethanone TFA salt], the negative-log IC50 (pIC50) was at least 7.00.
On the same count and under the same terms, to `N[C@H]1CC[C@@H](CC(=O)N2CCc3c(C(F)(F)F)nn(Cc4ccc(F)cc4)c3C2)CC1` [Example 9-18, 2-(cis-4-Aminocyclohexyl)-1-(1-(4-fluorobenzyl)-3-(trifluoromethyl)-4,5-dihydro-1H-pyrazolo[3,4-c]pyridin-6(7H)-yl)ethanone TFA salt] belongs at least 7.00.
With `N[C@H]1CC[C@H](CC(=O)N2CCc3c(C(F)(F)F)nn(Cc4ccc(Cl)cc4F)c3C2)CC1` [Example 9-19, 2-(trans-4-aminocyclohexyl)-1-(1-(4-chloro-2-fluorobenzyl)-3-(trifluoromethyl)-4,5-dihydro-1H-pyrazolo[3,4-c]pyridin-6(7H)-yl)ethanone TFA salt], the pIC50 is at least 7.00.
Same read-out and setting: to `N[C@H]1CC[C@H](CC(=O)N2CCc3c(C(F)(F)F)nn(Cc4ccc(F)cc4)c3C2)CC1` [Example 9-20, 2-(trans-4-Aminocyclohexyl)-1-(1-(4-fluorobenzyl)-3-(trifluoromethyl)-4,5-dihydro-1H-pyrazolo[3,4-c]pyridin-6(7H)-yl)ethanone TFA salt] belongs at least 7.00; to `O=C(CC1CC2CNCC2C1)N1CCc2c(C(F)(F)F)nn(Cc3ccc(Cl)cc3F)c2C1` (centres unmarked) [Example 9-21, 1-(1-(4-Chloro-2-fluorobenzyl)-3-(trifluoromethyl)-4,5-dihydro-1H-pyrazolo[3,4-c]pyridin-6(7H)-yl)-2-(octahydrocyclopenta[c]pyrrol-5-yl)ethanone TFA salt], at least 7.00.
Same read-out and setting: to `CNC12CCC(C(=O)N3CCc4c(C(F)(F)F)nn(Cc5ccc(F)cc5)c4C3)(CC1)CC2` [Example 9-22, (1-(4-Fluorobenzyl)-3-(trifluoromethyl)-4,5-dihydro-1H-pyrazolo[3,4-c]pyridin-6(7H)-yl)(4-(methylamino)bicyclo[2.2.2]octan-1-yl)methanone TFA salt] belongs 6.30 to 6.60; to `O=C(CC1CCNC1)N1CCc2c(C(F)(F)F)nn(Cc3ccc(F)cc3)c2C1` (centres unmarked) [Example 9-23, 1-(1-(4-Fluorobenzyl)-3-(trifluoromethyl)-4,5-dihydro-1H-pyrazolo[3,4-c]pyridin-6(7H)-yl)-2-(pyrrolidin-3-yl)ethanone hydrochloride], at least 7.00.
In the case of `CC1CC(CC(=O)N2CCc3c(C(F)(F)F)nn(Cc4ccc(Cl)cc4F)c3C2)CCN1C` (centres unmarked) [Example 10-2, 1-(1-(4-Chloro-2-fluorobenzyl)-3-(trifluoromethyl)-4,5-dihydro-1H-pyrazolo[3,4-c]pyridin-6(7H)-yl)-2-(1,2-dimethylpiperidin-4-yl)ethanone TFA salt], the pIC50 is at least 7.00.
With `CN1CCC(CC(=O)N2CCc3c(C(F)(F)F)nn(Cc4ccc(Cl)cc4F)c3C2)CC1(C)C` (centres unmarked) [Example 10-3, 1-(1-(4-Chloro-2-fluorobenzyl)-3-(trifluoromethyl)-4,5-dihydro-1H-pyrazolo[3,4-c]pyridin-6(7H)-yl)-2-(1,2,2-trimethylpiperidin-4-yl)ethanone TFA salt], the negative-log IC50 (pIC50) was at least 7.00.
For `CN1CCC(CC(=O)N2CCc3c(C(F)(F)F)nn(Cc4ccc(Cl)cc4F)c3C2)CC1C(F)(F)F` (centres unmarked) [Example 10-4, 1-(1-(4-Chloro-2-fluorobenzyl)-3-(trifluoromethyl)-4,5-dihydro-1H-pyrazolo[3,4-c]pyridin-6(7H)-yl)-2-(1-methyl-2-(trifluoromethyl)piperidin-4-yl)ethanone TFA salt], the negative-log IC50 (pIC50) was at least 7.00.
With `CN1CCC(CC(=O)N2CCc3c(C(F)(F)F)nn(Cc4ccc(F)cc4)c3C2)C1` (centres unmarked) [Example 10-5, 1-(1-(4-Fluorobenzyl)-3-(trifluoromethyl)-4,5-dihydro-1H-pyrazolo[3,4-c]pyridin-6(7H)-yl)-2-(1-methylpyrrolidin-3-yl)ethanone], the negative-log IC50 (pIC50) is 6.60 to 7.00.
As for `CC(C)N1CCC(CC(=O)N2CCc3c(C(F)(F)F)nn(Cc4ccc(F)cc4)c3C2)C1` (centres unmarked) [Example 10-6, 1-(1-(4-Fluorobenzyl)-3-(trifluoromethyl)-4,5-dihydro-1H-pyrazolo[3,4-c]pyridin-6(7H)-yl)-2-(1-isopropylpyrrolidin-3-yl)ethanone], the negative logarithm of the IC50 (pIC50) was at least 7.00.
Consider `CCC1CC(CC(=O)N2CCc3c(C(F)(F)F)nn(Cc4ccc(F)cc4)c3C2)CCN1C` (centres unmarked) [Example 10-7, 2-(2-Ethyl-1-methylpiperidin-4-yl)-1-(1-(4-fluorobenzyl)-3-(trifluoromethyl)-4,5-dihydro-1H-pyrazolo[3,4-c]pyridin-6(7H)-yl)ethanone TFA salt], for which the pIC50 is at least 7.00.
As for `CCCC1CC(CC(=O)N2CCc3c(C(F)(F)F)nn(Cc4ccc(F)cc4)c3C2)CCN1C` (centres unmarked) [Example 10-8, 1-(1-(4-Fluorobenzyl)-3-(trifluoromethyl)-4,5-dihydro-1H-pyrazolo[3,4-c]pyridin-6(7H)-yl)-2-(1-methyl-2-propylpiperidin-4-yl)ethanone acid TFA salt], the pIC50 was at least 7.00.
Still for that read-out and setting: to `CN(C)C12CCC(C(=O)N3CCc4c(C(F)(F)F)nn(Cc5ccc(F)cc5)c4C3)(CC1)CC2` [Example 10-9, (4-(dimethylamino)bicyclo[2.2.2]octan-1-yl)(1-(4-fluorobenzyl)-3-(trifluoromethyl)-4,5-dihydro-1H-pyrazolo[3,4-c]pyridin-6(7H)-yl)methanone trifluoroacetate salt TFA salt] belongs 6.30 to 6.60; to `CN1CC(CC(=O)N2CCc3c(C(F)(F)F)nn(Cc4ccc(Cl)cc4F)c3C2)C[C@@H]1C(=O)O` (stereo partly drawn) [Example 10-10, (2R)-4-(2-(1-(4-chloro-2-fluorobenzyl)-3-(trifluoromethyl)-4,5-dihydro-1H-pyrazolo[3,4-c]pyridin-6(7H)-yl)-2-oxoethyl)-1-methylpyrrolidine-2-carboxylic acid TFA salt], at least 7.00.
On to `CN1CC(CC(=O)N2CCc3c(C(F)(F)F)nn(Cc4ccc(Cl)cc4F)c3C2)C[C@H]1C(=O)O` (stereo partly drawn) [Example 10-11, (2S)-4-(2-(1-(4-Chloro-2-fluorobenzyl)-3-(trifluoromethyl)-4,5-dihydro-1H-pyrazolo[3,4-c]pyridin-6(7H)-yl)-2-oxoethyl)-1-methylpyrrolidine-2-carboxylic acid TFA salt], for which the negative-log IC50 (pIC50) is at least 7.00.
As to `CC(C)N1CC(CC(=O)N2CCc3c(C(F)(F)F)nn(Cc4ccc(Cl)cc4F)c3C2)C[C@H]1C(=O)O` (stereo partly drawn) [Example 10-12, (2S)-4-(2-(1-(4-Chloro-2-fluorobenzyl)-3-(trifluoromethyl)-4,5-dihydro-1H-pyrazolo[3,4-c]pyridin-6(7H)-yl)-2-oxoethyl)-1-isopropylpyrrolidine-2-carboxylic acid TFA salt], the negative-log IC50 (pIC50) was at least 7.00.
As to `CN1CCCC(CC(=O)N2CCc3c(C(F)(F)F)nn(Cc4ccc(F)cc4)c3C2)C1` (centres unmarked) [Example 11-1, 1-(1-(4-Fluorobenzyl)-3-(trifluoromethyl)-4,5-dihydro-1H-pyrazolo[3,4-c]pyridin-6(7H)-yl)-2-(1-methylpiperidin-3-yl)ethanone formate], the negative-log IC50 (pIC50) was at least 7.00.

Still in this experiment, the particulars now being: IC50, FRET assay, FS-3 2 μM, ATX 1.0 μg/mL, 30 minutes preincubation, 2 hours reaction at room temperature.
`CN1C2CCC1CC(CC(=O)N1CCc3c(C(F)(F)F)nn(Cc4ccc(Cl)cc4F)c3C1)C2` (centres unmarked) [Example 10-1, 1-(1-(4-Chloro-2-fluorobenzyl)-3-(trifluoromethyl)-4,5-dihydro-1H-pyrazolo[3,4-c]pyridin-6(7H)-yl)-2-(8-methyl-8-aza-bicyclo[3.2.1]octan-3-yl)ethanone TFA salt] showed a negative-log IC50 (pIC50) of at least 7.00.
